Test [1] relates to sDMA. Put plainly: Western blot for symmetric di-methyl arginine (sDMA) IC50 in Granta cells. The format is cell-based. The following applies: Homo sapiens, 72 h; Granta-519 cell line, 3 days. Background: In western blotting, separated proteins are transferred to a membrane and probed.
Test [2] deals with PRMT5/MEP50 complex (Homo sapiens (Human), UniProt O14744). As to the kind of experiment: PRMT5 biochemical assay (3H-SAM filter plate, histone H2A substrate). The following applies: PRMT5/MEP50 5 nM, histone H2A 5 μM, SAM 1 μM; read-out: PRMT5 IC50. The method, then:
Biochemical Assay Protocol
Compounds were solubilized and 3-fold diluted in 100% DMSO. […] Standard reactions were performed in a total volume of 50 μl in assay buffer, with histone H2A (5 μM final) as substrate. To this was added the PRMT5/MEP50 complex diluted to provide a final assay concentration of 5 nM and the compounds were allowed to preincubate for 15 to 20 minutes at room temperature. The reaction was initiated by adding S-[3H-methyl]-adenosyl-L-methionine (PerkinElmer) to final concentration of 1 μM. Following a 60 minutes incubation at 30° C., the reaction was stopped by adding 100 μL of 20% TCA. Each reaction was spotted onto filter plate (MultiScreen FB Filter Plate, Millipore), and washed 5 times with PBS buffer, Scintillation fluid was added to the filter plate and read in a scintillation counter. IC50 values were determined by fitting the data to the standard 4 parameters with Hill Slope using GraphPad Prism software.

Test [3] concerns Granta-519 cells. As to the kind of experiment: Cell proliferation assay on Granta-519 cells (CCK-8, day 10). To be noted: Homo sapiens, 240 h, Granta-519 cell line, read-out: Prolif. IC50. The format is cell-based. Here is the method: Cell Proliferation Assay to Determine IC50 on Granta-519 Cells
Granta-519 cells were maintained in PRMI 1640 (Corning Cellgro, Catalog #: 10-040-CV) medium supplemented with 10% v/v FBS (GE Healthcare, Catalog #: SH30910.03). Compounds were dissolved in DMSO to make 10 mM stocks and stored at −20° C. Nine-point, 3-fold serial dilutions were made with DMSO with top concentration at 1 mM (working stocks).
On day of experiment, compound working stocks were further diluted at 1:50 with fresh medium in 96 well plate, and 10 μL of diluted drugs were added to a new 96 well plate for proliferation assay. Cells growing at exponential phase were spun down at 1500 rpm for 4 min and resuspend in fresh medium to reach a density of 0.5×10^6 cells/ml. 200 ul of cells were added to 96 well plate containing diluted drugs and incubated for 3 days. DMSO was used a vehicle control.
One day 3, 10 μL of Cell Counting Kit-8 (CCK-8, Jojindo, CK04-13) solution was added to a new 96 well plate. Cells incubated with drugs for 3 days were resuspended by pipetting up and down, and 100 μL of cells were transferred to 96 well plate containing CCK-8 reagent to measure viable cells. Plates were incubated in CO2 incubator for 2 hours and OD450 values were measured with a microplate reader (iMark microplate reader, Bio-Rad).
For re-plating, compound working stocks were diluted at 1:50 with fresh medium and 10 μL of diluted drugs were added to a new 96 well plate. Cells from Day 3 plate (50 ul) were added to 96 well plate containing fresh drug and additional 150 μL of fresh medium was added to reach 200 μL volume. Plate was returned to CO2 incubator and incubated for 3 more days. Viable cells measurement and re-plating were repeated on day 6, and the final viable cells measurement was taken on day 10.
Percentage of viable cells, relative to DMSO vehicle control, were calculated and plotted in Graphpad Prism ([Inhibitor] vs. normalized response−Variable slope) to determine proliferation IC50 values on day 10.

Chain of PRMT5/MEP50 complex (O14744 whole entry): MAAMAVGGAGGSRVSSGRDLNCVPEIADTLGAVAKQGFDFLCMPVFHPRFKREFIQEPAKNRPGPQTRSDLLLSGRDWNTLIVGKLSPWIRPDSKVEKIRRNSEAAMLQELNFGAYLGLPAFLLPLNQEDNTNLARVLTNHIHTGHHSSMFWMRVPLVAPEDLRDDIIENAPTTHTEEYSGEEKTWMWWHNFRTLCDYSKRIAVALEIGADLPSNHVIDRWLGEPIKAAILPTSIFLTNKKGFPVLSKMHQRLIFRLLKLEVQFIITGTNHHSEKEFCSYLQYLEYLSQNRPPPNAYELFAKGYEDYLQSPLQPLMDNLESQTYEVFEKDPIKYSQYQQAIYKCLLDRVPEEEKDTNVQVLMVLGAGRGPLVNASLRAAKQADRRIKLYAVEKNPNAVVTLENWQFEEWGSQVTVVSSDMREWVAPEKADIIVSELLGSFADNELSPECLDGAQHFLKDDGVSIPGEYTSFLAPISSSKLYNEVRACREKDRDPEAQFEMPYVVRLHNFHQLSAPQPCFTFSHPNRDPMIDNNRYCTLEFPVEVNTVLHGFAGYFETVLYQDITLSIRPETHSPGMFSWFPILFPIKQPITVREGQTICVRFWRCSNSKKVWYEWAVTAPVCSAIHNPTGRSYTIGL
Chain of PRMT5/MEP50 complex (Q9BQA1 whole entry partner): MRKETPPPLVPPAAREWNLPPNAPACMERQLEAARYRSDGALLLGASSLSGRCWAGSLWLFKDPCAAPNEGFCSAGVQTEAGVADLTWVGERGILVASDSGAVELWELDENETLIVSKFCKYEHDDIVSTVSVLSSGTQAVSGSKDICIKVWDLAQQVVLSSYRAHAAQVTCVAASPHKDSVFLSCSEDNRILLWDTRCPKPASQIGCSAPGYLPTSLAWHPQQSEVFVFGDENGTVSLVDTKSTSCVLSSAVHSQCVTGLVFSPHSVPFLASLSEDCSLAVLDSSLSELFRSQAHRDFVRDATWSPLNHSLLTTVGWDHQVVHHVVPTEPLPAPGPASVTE

Turning to `Cc1ncnc2c1ccn2[C@@H]1O[C@H]([C@H](O)c2ccc(C(F)(F)F)cc2)[C@@](C)(O)[C@H]1O` [Example 62, (2R,3S,4R,5R)-2-((R)-hydroxy(4-(trifluoromethyl)phenyl)methyl)-3-methyl-5-(4-methyl-7H-pyrrolo[2,3-d]pyrimidin-7-yl)tetrahydrofuran-3,4-diol], the results for the IC50 in test [1] and in test [2] were 415 nM and 7 nM, respectively.
Turning to `Cc1cc([C@@H](O)[C@H]2O[C@@H](n3ccc4c(N)ncnc43)[C@H](O)[C@]2(C)O)ccc1Cl` [Example 56, (2R,3S,4R,5R)-5-(4-amino-7H-pyrrolo[2,3-d]pyrimidin-7-yl)-2-((R)-(4-chloro-3-methylphenyl)(hydroxy)methyl)-3-methyltetrahydrofuran-3,4-diol], the values for the IC50 in test [3] and in test [2] were 203 nM and 68 nM, respectively.
Take `C[C@@]1(O)[C@@H]([C@H](O)c2ccc(Cl)cc2)O[C@@H](n2ccc3c(N)ncnc32)[C@@H]1O` [Example 26, (2R,3S,4R,5R)-5-(4-amino-7H-pyrrolo[2,3-d]pyrimidin-7-yl)-2-((R)-(4-chlorophenyl)(hydroxy)methyl)-3-methyltetrahydrofuran-3,4-diol]: the values for the IC50 in test [1], in test [3] and in test [2] were 51.4 nM, 660 nM and 4.8 nM, respectively.
Consider `C#C[C@@]1(O)[C@@H](COc2ccc3ccc(N)nc3c2)O[C@@H](n2ccc3c(N)ncnc32)[C@@H]1O` [Example 3, (2R,3S,4R,5R)-5-(4-amino-7H-pyrrolo[2,3-d]pyrimidin-7-yl)-2-(((2-aminoquinolin-7-yl)oxy)methyl)-3-ethynyltetrahydrofuran-3,4-diol], for which the values for the IC50 in test [1] and in test [2] were 44.2 nM and 1.6 nM, respectively.
Turning to `Cc1ncnc2c1ccn2[C@@H]1O[C@H](COc2ccc3cc(Br)c(N)nc3c2)[C@@](C)(O)[C@H]1O` [Example 55, (2R,3S,4R,5R)-2-(((2-amino-3-bromoquinolin-7-yl)oxy)methyl)-3-methyl-5-(4-methyl-7H-pyrrolo[2,3-d]pyrimidin-7-yl)tetrahydrofuran-3,4-diol], the half-maximal inhibitory concentration (IC50) (commonly the concentration at which inhibition is half-maximal) stood at 5.1 nM in test [1] and 0.8 nM in test [2].
On to `Nc1ccc2ccc(OC[C@H]3O[C@@H](n4ccc5c(N)ncnc54)[C@H](O)[C@@]3(O)C(F)(F)F)cc2n1` [Example 2, (2R,3S,4R,5R)-5-(4-amino-7H-pyrrolo[2,3-d]pyrimidin-7-yl)-2-(((2-aminoquinolin-7-yl)oxy)methyl)-3-(trifluoromethyl)tetrahydrofuran-3,4-diol], for which the values for the IC50 in test [1] and in test [2] were 21 nM and 1.9 nM, respectively.
As to `Cc1ncnc2c1ccn2[C@@H]1O[C@H]([C@H](O)c2ccc(Cl)c(Cl)c2)[C@@](C)(O)[C@H]1O` [Example 58, (2R,3S,4R,5R)-2-((R)-(3,4-dichlorophenyl)(hydroxy)methyl)-3-methyl-5-(4-methyl-7H-pyrrolo[2,3-d]pyrimidin-7-yl)tetrahydrofuran-3,4-diol], the IC50 in test [1] is 3160 nM; in test [3], 10000 nM; in test [2], 11 nM.
On to `C[C@@]1(O)[C@@H](COc2ccc3cc(Br)c(N)nc3c2)O[C@@H](n2ccc3c(N)ncnc32)[C@@H]1O` [Example 12, (2R,3S,4R,5R)-2-(((2-amino-3-bromoquinolin-7-yl)oxy)methyl)-5-(4-amino-7H-pyrrolo[2,3-d]pyrimidin-7-yl)-3-methyltetrahydrofuran-3,4-diol], for which the values for the IC50 in test [1] and in test [2] were 1 nM and 0.5 nM, respectively.
Take `C[C@@]1(O)[C@@H]([C@H](O)c2ccc(F)c(C(F)(F)F)c2)O[C@@H](n2ccc3c(N)ncnc32)[C@@H]1O` [Example 63, (2R,3S,4R,5R)-5-(4-amino-7H-pyrrolo[2,3-d]pyrimidin-7-yl)-2-((R)-(4-fluoro-3-(trifluoro-methyl)phenyl)(hydroxy)methyl)-3-methyltetrahydrofuran-3,4-diol]: the results for the IC50 in test [1], in test [3] and in test [2] were 71 nM, 231 nM and 3 nM, respectively.
With `C[C@@]1(O)[C@@H](COc2cccc(CN)c2)O[C@@H](n2ccc3c(N)ncnc32)[C@@H]1O` [Example 22, (2R,3S,4R,5R)-5-(4-amino-7H-pyrrolo[2,3-d]pyrimidin-7-yl)-2-((3-(aminomethyl)phenoxy)methyl)-3-methyltetrahydrofuran-3,4-diol], the 50% inhibitory concentration (IC50) in test [1] stood at 60000 nM; in test [2], 126 nM.
`Cc1cc([C@@H](O)[C@H]2O[C@@H](n3ccc4c(C)ncnc43)[C@H](O)[C@]2(C)O)ccc1Cl` [Example 57, (2R,3S,4R,5R)-2-((R)-(4-chloro-3-methylphenyl)(hydroxy)methyl)-3-methyl-5-(4-methyl-7H-pyrrolo[2,3-d]pyrimidin-7-yl)tetrahydrofuran-3,4-diol]: the IC50 was 913 nM in test [3] and 11 nM in test [2].
Consider `C[C@@]1(O)[C@@H](COc2ccc3ccc(N)nc3c2)O[C@@H](n2ccc3c(N)ncnc32)[C@@H]1O` [Example 1, (2R,3S,4R,5R)-5-(4-amino-7H-pyrrolo[2,3-d]pyrimidin-7-yl)-2-(((2-aminoquinolin-7-yl)oxy)methyl)-3-methyltetrahydrofuran-3,4-diol], for which the IC50 was found to be 15 nM in test [1], 40 nM in test [3] and 0.75 nM in test [2].
With `CSC[C@H]1O[C@@H](n2ccc3c(N)ncnc32)[C@H](O)[C@]1(C)O` [Example 17, (2S,3S,4R,5R)-5-(4-amino-7H-pyrrolo[2,3-d]pyrimidin-7-yl)-3-methyl-2-((methylthio)methyl)tetrahydrofuran-3,4-diol], the IC50 stood at 1000 nM in test [1], 200000 nM in test [3] and 900 nM in test [2].
The matching figures for `C[C@@]1(O)[C@@H](COc2ccc3ccc(N)nc3c2)O[C@@H](n2cc(F)c3c(N)ncnc32)[C@@H]1O` [Example 6, (2R,3S,4R,5R)-5-(4-amino-5-fluoro-7H-pyrrolo[2,3-d]pyrimidin-7-yl)-2-(((2-aminoquinolin-7-yl)oxy)methyl)-3-methyltetrahydrofuran-3,4-diol]: 1 nM, 30 nM and 0.85 nM.
Take `Cc1ncnc2c1ccn2[C@@H]1O[C@H](COc2ccn3c(C)cnc3c2)[C@@](C)(O)[C@H]1O` [Example 67, (2R,3S,4R,5R)-3-methyl-5-(4-methyl-7H-pyrrolo[2,3-d]pyrimidin-7-yl)-2-(((3-methylimidazo[1,2-a]pyridin-7-yl)oxy)methyl)tetrahydrofuran-3,4-diol]: the IC50 in test [1] stood at 46 nM; in test [2] it was 1 nM.

For the origin of these results see US10570140B2, “Selective inhibitors of protein arginine methyltransferase 5 (PRMT5)” (Prelude Therapeutics, Incorporated, priority 2017, dated 2020).
